Data on two molecules can be found in article PMC12265377, “CC48 a new CB2R agonist/FAAH inhibitor dual drug blocks gastric cancer progression and overcomes paclitaxel resistance” (Journal of Experimental & Clinical Cancer Research : CR, 2025).

For data set [1], the system named is HGC27-S/R and AGS cell lines. The data set can be described thus: VEGFA in cell culture medium (ELISA), all lines. It counts as cell-based, human. Conditions: all the cell lines investigated, 48 h. As for the experimental part:
The amount of VEGFA secreted in the culture medium by HGC27-S/R and AGS treated cells was measured using a highly sensitive Enzyme-Linked Immunosorbent Assay (ELISA), Quantikine Kit ELISA (R&D Systems, Minneapolis, MN, USA), according to the manufacturer’s instructions. The measured values were normalized to the number of cells.
For orientation: In an ELISA, binding on a coated surface is turned into a signal by an enzyme label.

Data set [2] is described as follows: Body weight, serum biochemistry and urinalysis in treated mice. Conditions: GP2 and GP3 (10 and 20 mg/kg).
Protocol: All the animals were fed ad libitum with complete mouse feed, and water was provided ad libitum. The body weight for each animal was recorded weekly, starting from day 0 until the end of the study.
Physical observations of health status, including visual checks on the mice general appearance (e.g. fur and activity levels/responsiveness), were made daily. On day 45, the animals were individually housed in metabolic cages for 24 h, with free access to water and food, in order to perform urine collection and urinalysis. Immediately before metabolic cage housing, animals were subjected to a water load (10 mL/kg by oral gavage) in order to allow urine volume normalization. In addition, blood samples were taken from the submandibular vein after isoflurane anesthesia and before sacrifice at the end of the study period. The blood was collected in Eppendorf tubes and then centrifuged at about 8,000 rpm for 15 min at 4 °C for serum collection.
In another data set the test system is NCI-N87_LUC cell line. The data set can be described thus: Ki67 immunohistochemistry of tumor explants. Format: in vivo, CD1-nude female mice. Particulars: GP2/GP3 (10 and 20 mg/kg); vehicle 35%. As for the experimental part: Tissue blocks fixed in formalin and embedded in paraffin were obtained from the explants of the tumor masses of each specimen. Sections stained with hematoxylin and eosin (H&E) were reviewed by a pathologist to confirm the adequacy of the sample, and to evaluate the morphologic and/or pathological characteristics of each sample. […] IHC analysis was carried out in sections after deparaffinization for 30 min and then rehydration in grades of alcohol. Antigen retrieval was performed at 90 °C for 20 min with Tris-borate-EDTA Buffer. To assess the Ki67, IHC was again carried out on all cases on paraffin-embedded sections using an anti-Ki67 Ab diluted 1:100 (Mib-1; DAKO) following the manufacturer’s instructions.

For another data set, the system named is CB1R. Details: method as in PMID 36657299. Particulars: cited from earlier work.
In data set [3] the test system is circulating cytokines (eotaxin, G-CSF, p40IL-12). Nature of the data set: Serum cytokine quantification (Bio-Plex). It counts as in vivo, CD1-nude female mice. How it is done:
Serum levels of 23 cytokines [G-CSF, GM-CSF, GRO/KC (CXCL1), IFN-γ, IL-1α, IL-1β, IL-2, IL-3, IL-4, IL-5, IL-6, IL-9, IL-10, IL-12 (p70), IL-13, IL-17 A, IL-18, MCP-1 (CCL2), MIP-1α, MIP-1β, RANTES, TNF-α, and eotaxin] were measured using Bio-Plex Pro Rat Cytokine 23-Plex™ (#M60009RDPD) magnetic bead-based assays (Bio-Rad Laboratories) on the Bio-Plex® platform (Bio-Rad), according to the manufacturer’s instructions. […] Cytokine expression (pg/mL) for each sample was multiplied by the dilution factor prior to the percent baseline calculation.

Regarding `COc1ccc(C(=O)c2c(C)n(CCN3CCOCC3)c3cc(I)ccc23)cc1` [AM630, reference compound], the “VEGFA secretion in culture medium (in words)” value in data set [1] is on record as “increase in VEGFA secretion”.

For orientation: EC50 means the midpoint of the concentration-response curve. Take `O=C(NC12CC3CC(CC(C3)C1)C2)c1ccccc1OCc1ccccc1` [CC48]: in data set [2], the “body weight vs vehicle” value is “No statistically significant differences were observed”; the “serum AST, ALT, Cre, UREA and GFR vs vehicle” value is reported as “No statistically significant differences in biochemical results”. Also, the “percentage of Ki67-stained nuclei in tumor” value with NCI-N87_LUC cell line is 15–20%. Further, in the data set with CB1R, the concentration for a half-maximal effect (EC50) is 489 nM. Further, the “serum G-CSF level vs GP1” value in data set [3] (GP2, 10 mg/kg, p < 0.01) is given as “significant decrease”. For the same molecule, the “serum eotaxin level vs GP1” value in data set [3] (GP3, 20 mg/kg) is on record as “tended to decrease”. Besides, in data set [3] (GP3, 20 mg/kg, p < 0.05), the “serum G-CSF level vs GP1” value is given as “maintained at the highest dose” and the “serum p40IL-12 level vs GP1” value was “significant decrease”.
